According to patent US9695132B2, “Heteroaryl compounds and uses thereof” (Celgene CAR LLC, priority 2013, dated 2017):
Like-named read-outs stand apart in the source and are kept apart here.

Experiments:
FGFR4-WT = FGFR4-WT (Homo sapiens (Human), UniProt P22455); assay: Omnia assay for potency assessment against FGFR4 enzyme; assay type: biochemical
Description: A 10× stock solution of FGFR4-WT (PR4380C), (from Invitrogen, Carlsbad, Calif.) corresponding to method a in Table 7, was prepared as described below. Alternatively, a 10× stock solution of FGFR4-WT (F01-11G), (SignalChem, Richmond, BC) corresponding to method b in Table 7, was prepared as described below. A solution of 1.4×ATP (AS001A) and 5× Tyr-Sox conjugated peptide substrate (KNZ3101) were prepared in 1× kinase reaction buffer consisting of 20 mM Tris, pH 7.5, 5 mM MgCl2, 1 mM EGTA, 5 mM β-glycerophosphate, 5% glycerol (10× stock, KB002A) and 0.2 mM DTT (DS001A). […] The serially diluted compounds were prepared on a Tecan EVO100. A second addition of 10 μl of Tyr-Sox FGFR4 substrate was added to each well and the kinase reactions were started with the addition of 35 μL of 1.4×ATP. The reactions were monitored every 71 seconds for 240 minutes at λex360/λem485 in a Synergy plate reader from BioTek (Winooski, Vt.).

pFGFR4 in Huh7 cells = pFGFR4 in Huh7 cells (Homo sapiens (Human), UniProt P22455); assay: FGFR4 signaling, Meso Scale assay (MSD), Method B, Huh7
Chain of pFGFR4 in Huh7 cells (P22455 22-802): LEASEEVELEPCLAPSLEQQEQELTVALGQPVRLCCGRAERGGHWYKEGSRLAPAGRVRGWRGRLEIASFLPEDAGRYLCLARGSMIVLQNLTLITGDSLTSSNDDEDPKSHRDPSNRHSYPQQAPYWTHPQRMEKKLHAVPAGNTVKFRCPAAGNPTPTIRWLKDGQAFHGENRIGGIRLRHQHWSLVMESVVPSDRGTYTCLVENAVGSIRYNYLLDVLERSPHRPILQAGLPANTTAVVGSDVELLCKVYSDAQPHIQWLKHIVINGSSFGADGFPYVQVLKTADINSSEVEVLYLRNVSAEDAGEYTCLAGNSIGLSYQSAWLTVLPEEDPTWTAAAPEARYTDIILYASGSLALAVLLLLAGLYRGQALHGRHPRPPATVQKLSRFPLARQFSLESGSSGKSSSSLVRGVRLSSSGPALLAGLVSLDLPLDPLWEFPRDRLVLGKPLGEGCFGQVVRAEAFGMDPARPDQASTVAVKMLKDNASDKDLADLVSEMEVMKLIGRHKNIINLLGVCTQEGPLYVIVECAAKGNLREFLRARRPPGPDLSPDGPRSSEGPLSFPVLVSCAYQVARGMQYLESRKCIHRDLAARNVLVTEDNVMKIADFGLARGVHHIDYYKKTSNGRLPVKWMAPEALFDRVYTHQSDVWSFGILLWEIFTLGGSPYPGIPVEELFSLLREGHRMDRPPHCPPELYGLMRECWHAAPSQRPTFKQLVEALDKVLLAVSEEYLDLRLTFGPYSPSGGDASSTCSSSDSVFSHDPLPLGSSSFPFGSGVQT
Description: Huh7 cells were grown in DMEM (Invitrogen, Carlsbad, Calif.) supplemented with 10% FBS (Invitrogen) and 1% Penicillin-Streptomycin (P/S, Lonza, Walkersville, Md.).
For the MSD and ELISA assays, total FGFR4 antibodies were obtained from R&D Systems (Minneapolis, Minn.) and used at 1:500. […] Phospho-FGFR antibodies were obtained from Cell Signaling (Danvers, Mass.) or R&D Systems and used at 1:1000. The phopho-FGFR antibody from Cell Signaling was used for immunoblotting, whereas the phopho-FGFR antibody from R&D was used for MSD and ELISA assays. Secondary antibodies were used at 1:10,000. The goat anti-mouse IgG IRDye 800CW antibody was obtained from LiCor Biosciences (Lincoln, Nebr.) and the goat anti-rabbit IgG Alexa Fluor 680 was obtained from Invitrogen. The anti-rabbit Sulfo-tag and anti-streptavidin Sulfo-tag antibodies was obtained from Meso Scale Discovery (Gaithersburg, Md.), and were used at 1:1000 and 1:5000, respectively.
After treatment, the cells were washed with cold PBS (Invitrogen), and were immediately lysed by freeze/thawing 3× in 32 μL of cold Cell Extraction Buffer (Invitrogen), which was supplemented with Complete Protease inhibitors (Roche) and PhosphoSTOP (Roche) phosphatase inhibitors.
MSD plates (Meso Scale Discovery) were coated with total FGFR-4 antibodies overnight at 4° C. A lysate (25 μL) was added to the MSD plate overnight at 4° C. The MSD signals were obtained by incubating with a phospho-FGFR antibody (R&D Systems) and an anti-rabbit sulfo-tag antibody (Meso Scale), for 2 hr at room temperature. […] The data was fitted using a sigmoidal curve analysis program (Graph Pad Prism version 5) with variable Hill slope to determine the EC50 values.

[1] = method a: [FGFR4-WT]=10 nM (Invitrogen), [ATP]=300 uM, [Y10-Sox]=10 uM

Chain of FGFR4-WT (P22455 22-802): as above

## C=CC(=O)NC1COCC1Nc1ncc2c(n1)N(Cc1cnn(C)c1)C(=O)N(c1c(Cl)c(OC)cc(OC)c1Cl)C2 (stereo not shown) [Compound I-213]
FGFR4-WT; [1]
  IC50: < 100 nM
pFGFR4 in Huh7 cells
  EC50: < 100 nM

## C=CC(=O)Nc1ccccc1Nc1ncc2c(n1)N(CC1CC1)C(=O)N(c1cc(OC)cc(OC)c1Cl)C2 [Compound I-100]
FGFR4-WT; [1]
  IC50: < 100 nM
pFGFR4 in Huh7 cells
  EC50: < 100 nM

## C=CC(=O)NC1COCC1Nc1ncc2c(n1)N(C)C(=O)N(c1cc(C(=O)Nc3cccc(C(C)(C)C)c3)ccc1Cl)C2 (stereo not shown) [Compound I-247]
FGFR4-WT; [1]
  IC50: 101 to 500 nM
pFGFR4 in Huh7 cells
  EC50: < 100 nM

## C=CC(=O)Nc1cc(OC)ccc1Nc1ncc2cc(-c3c(Cl)c(OC)cc(OC)c3Cl)c(=O)n(C)c2n1 [Compound I-242]
pFGFR4 in Huh7 cells
  EC50: < 100 nM

## C=CC(=O)Nc1cc(N2CCN(CCOC)CC2)ccc1Nc1ncc2c(n1)N(Cc1cccc(NC(=O)CC)c1)C(=O)N(c1cc(OC)cc(OC)c1)C2 [Compound I-9]
pFGFR4 in Huh7 cells
  EC50: 101 to 500 nM

## C=CC(=O)Nc1cc(-c2nnn(C)n2)ccc1Nc1ncc2c(n1)N(C)C(=O)N(c1cc(OC)cc(OC)c1)C2 [Compound I-146]
FGFR4-WT; [1]
  IC50: < 100 nM
pFGFR4 in Huh7 cells
  EC50: 101 to 500 nM

## C=CC(=O)NC1COCC1Nc1ncc2c(n1)N(C)C(=O)N(c1c(Cl)c(OC)cc(OC)c1Cl)C2 (stereo not shown) [Compound I-126]
FGFR4-WT; [1]
  IC50: < 100 nM
pFGFR4 in Huh7 cells
  EC50: < 100 nM

## C=CC(=O)NC1CN(C(C)=O)CC1Nc1ncc2c(n1)N(C)C(=O)N(c1c(Cl)c(OC)cc(OC)c1Cl)C2 (racemic) [Compound I-139]
pFGFR4 in Huh7 cells
  EC50: 101 to 500 nM

## C=CC(=O)Nc1ccc(C(F)(F)F)cc1Nc1ncc2c(n1)N(C)C(=O)N(c1cc(OC)cc(OC)c1)C2 [Compound I-50]
FGFR4-WT; [1]
  IC50: < 100 nM
pFGFR4 in Huh7 cells
  EC50: 101 to 500 nM

## C=CC(=O)Nc1cc(C(F)(F)F)ccc1Nc1ncc2c(n1)N(C)C(=O)N(c1cc(OC)cc(OC)c1)C2 [Compound I-42]
FGFR4-WT; [1]
  IC50: < 100 nM
pFGFR4 in Huh7 cells
  EC50: < 100 nM

## COc1cc(OC)c(Cl)c(N2Cc3cnc(Nc4ccccc4)nc3N(C)C2=O)c1Cl [Compound I-238]
pFGFR4 in Huh7 cells
  EC50: < 100 nM

## C=CC(=O)Nc1ccccc1Nc1ncc2c(n1)N(CCF)C(=O)N(c1cc(OC)cc(OC)c1)C2 [Compound I-102]
FGFR4-WT; [1]
  IC50: < 100 nM
pFGFR4 in Huh7 cells
  EC50: < 100 nM

## C=CC(=O)Nc1ccccc1Nc1ncc2c(n1)N(Cc1cn[nH]c1)C(=O)N(c1cc(OC)cc(OC)c1)C2 [Compound I-121]
FGFR4-WT; [1]
  IC50: < 100 nM
pFGFR4 in Huh7 cells
  EC50: < 100 nM

## C=CC(=O)NC1CS(=O)(=O)CC1Nc1ncc2c(n1)N(C)C(=O)N(c1c(Cl)c(OC)cc(OC)c1Cl)C2 (stereo not shown) [Compound I-200]
FGFR4-WT; [1]
  IC50: < 100 nM
pFGFR4 in Huh7 cells
  EC50: 101 to 500 nM

## C=CC(=O)N(C)C1COCC1Nc1ncc2c(n1)N(C)C(=O)N(c1c(Cl)c(OC)cc(OC)c1Cl)C2 (stereo not shown) [Compound I-218]
FGFR4-WT; [1]
  IC50: > 1000 nM
pFGFR4 in Huh7 cells
  EC50: > 1000 nM

## C=CC(=O)NC1CCCCC1Nc1ncc2c(n1)N(CC(F)F)C(=O)N(c1c(F)c(OC)cc(OC)c1F)C2 (stereo not shown) [Compound I-115]
FGFR4-WT; [1]
  IC50: 101 to 500 nM
pFGFR4 in Huh7 cells
  EC50: 101 to 500 nM

## C=CC(=O)Nc1ccccc1Nc1ncc2c(n1)N(C)C(=O)N(c1c(F)c(OC)cc(OC)c1F)C2 [Compound I-131]
FGFR4-WT; [1]
  IC50: < 100 nM
pFGFR4 in Huh7 cells
  EC50: < 100 nM

## C=CC(=O)Nc1ccccc1Nc1ncc2cc(-c3cc(OC)cc(OC)c3)c(N)nc2n1 [Compound I-155]
pFGFR4 in Huh7 cells
  EC50: > 1000 nM

## C=CC(=O)NC1COCC1Nc1ncc2c(n1)N(C)C(=O)N(c1cc(OC)c(OC)c(OC)c1)C2 (stereo not shown) [Compound I-207]
FGFR4-WT; [1]
  IC50: > 1000 nM
pFGFR4 in Huh7 cells
  EC50: > 1000 nM

## C=CC(=O)NC1COCC1Nc1ncc2c(n1)N(C)C(=O)N(c1c(F)c(OC)cc(OC)c1Cl)C2 (stereo not shown) [Compound I-206]
FGFR4-WT; [1]
  IC50: < 100 nM
pFGFR4 in Huh7 cells
  EC50: < 100 nM

## C=CC(=O)Nc1ccccc1Nc1ncc2c(n1)N(Cc1cccnc1)C(=O)N(c1cc(OC)cc(OC)c1)C2 [Compound I-44]
FGFR4-WT; [1]
  IC50: < 100 nM
pFGFR4 in Huh7 cells
  EC50: < 100 nM

## C=CC(=O)Nc1ccccc1Nc1ncc2c(n1)N(C1CCCNC1)C(=O)N(c1cc(OC)cc(OC)c1)C2 (stereo not shown) [Compound I-43]
FGFR4-WT; [1]
  IC50: < 100 nM
pFGFR4 in Huh7 cells
  EC50: > 1000 nM

## C=CC(=O)Nc1cc(N2CCN(C(=O)CCCC(=O)NCCCOCCOCCOCCCNC(=O)CCCC[C@@H]3SC[C@@H]4NC(=O)N[C@@H]43)CC2)ccc1Nc1ncc2c(n1)N(C)C(=O)N(c1c(Cl)c(OC)cc(OC)c1Cl)C2 [Compound I-127]
FGFR4-WT
  IC50: < 100 nM
pFGFR4 in Huh7 cells
  EC50: 101 to 500 nM

## C=CC(=O)NC1COCC1Nc1ncc2c(n1)N(C)C(=O)N(c1ccc(OC)cc1)C2 (stereo not shown) [Compound I-209]
FGFR4-WT; [1]
  IC50: > 1000 nM
pFGFR4 in Huh7 cells
  EC50: > 1000 nM

## C=CC(=O)NC1COCC1Nc1ncc2c(n1)N(C)C(=O)N(c1c(Cl)c(OCC)cc(OCC)c1Cl)C2 (stereo not shown) [Compound I-205]
FGFR4-WT; [1]
  IC50: 101 to 500 nM
pFGFR4 in Huh7 cells
  EC50: 101 to 500 nM

## C=CC(=O)NC1COCC1Nc1ncc2c(n1)N(C)C(=O)N(c1c(Cl)c(OC)c(OC)c(OC)c1Cl)C2 (stereo not shown) [Compound I-208]
FGFR4-WT; [1]
  IC50: 501 to 999 nM
pFGFR4 in Huh7 cells
  EC50: > 1000 nM

## C=CC(=O)Nc1ccccc1Nc1ncc2c(n1)N(CC(F)F)C(=O)N(c1cc(OC)cc(OC)c1)C2 [Compound I-99]
FGFR4-WT; [1]
  IC50: < 100 nM
pFGFR4 in Huh7 cells
  EC50: 101 to 500 nM

## C=CC(=O)Nc1cc(C)ccc1Nc1ncc2cc(-c3c(Cl)c(OC)cc(OC)c3Cl)c(=O)n(C)c2n1 [Compound I-243]
FGFR4-WT; [1]
  IC50: < 100 nM
pFGFR4 in Huh7 cells
  EC50: < 100 nM

## C=CC(=O)N[C@@H]1COC[C@@H]1Nc1ncc2c(n1)N(C)C(=O)N(c1c(Cl)c(OC)cc(OC)c1Cl)C2 [Compound I-185]
FGFR4-WT; [1]
  IC50: > 1000 nM
pFGFR4 in Huh7 cells
  EC50: > 1000 nM

## C=CC(=O)Nc1ccccc1Nc1ncc2c(n1)N(CCOC)C(=O)N(c1cc(OC)cc(OC)c1)C2 [Compound I-59]
FGFR4-WT; [1]
  IC50: < 100 nM
pFGFR4 in Huh7 cells
  EC50: 101 to 500 nM

## C=CC(=O)Nc1ccccc1Nc1ncc2c(n1)N(CC1CC1)C(=O)N(c1cc(OC)cc(OC)c1)C2 [Compound I-98]
FGFR4-WT; [1]
  IC50: < 100 nM
pFGFR4 in Huh7 cells
  EC50: < 100 nM

## C=CC(=O)N[C@H]1CCCC[C@H]1Nc1ncc2c(n1)N(C)C(=O)N(c1c(F)c(OC)cc(OC)c1Br)C2 [Compound I-228]
FGFR4-WT; [1]
  IC50: 101 to 500 nM
pFGFR4 in Huh7 cells
  EC50: 101 to 500 nM

## C=CC(=O)NC1COCC1Nc1ncc2c(n1)N(Cc1ccn(C)n1)C(=O)N(c1c(Cl)c(OC)cc(OC)c1Cl)C2 (stereo not shown) [Compound I-215]
FGFR4-WT; [1]
  IC50: < 100 nM
pFGFR4 in Huh7 cells
  EC50: < 100 nM

## C=CC(=O)Nc1ccccc1Nc1ncc2c(n1)N(CC(O)CO)C(=O)N(c1cc(OC)cc(OC)c1)C2 (stereo not shown) [Compound I-33]
pFGFR4 in Huh7 cells
  EC50: > 1000 nM

## C=CC(=O)NC1COCC1Nc1ncc2c(n1)N(Cc1cscn1)C(=O)N(c1c(Cl)c(OC)cc(OC)c1Cl)C2 (stereo not shown) [Compound I-210]
pFGFR4 in Huh7 cells
  EC50: < 100 nM

## C=CC(=O)N[C@H]1CCCC[C@H]1Nc1ncc2c(n1)N(Cc1cscn1)C(=O)N(c1c(Cl)c(OC)cc(OC)c1Cl)C2 [Compound I-114]
pFGFR4 in Huh7 cells
  EC50: 101 to 500 nM

## C=CC(=O)NC1COCC1Nc1ncc2c(n1)N(Cc1cn[nH]c1)C(=O)N(c1c(Cl)c(OC)cc(OC)c1Cl)C2 (stereo not shown) [Compound I-214]
pFGFR4 in Huh7 cells
  EC50: 101 to 500 nM

## C=CC(=O)NC1CCCCC1Nc1ncc2c(n1)N(CCF)C(=O)N(c1c(Cl)c(OC)cc(OC)c1Cl)C2 (racemic) [Compound I-106]
pFGFR4 in Huh7 cells
  EC50: 101 to 500 nM

## C=CC(=O)N[C@H]1CCCC[C@H]1Nc1ncc2c(n1)N(C)C(=O)N(c1c(Cl)c(OC)c(OC)c(OC)c1Cl)C2 [Compound I-221]
pFGFR4 in Huh7 cells
  EC50: > 1000 nM

## C=CC(=O)NC1COCC1Nc1ncc2c(n1)N(CC1CC1)C(=O)N(c1c(Cl)c(OC)cc(OC)c1Cl)C2 (stereo not shown) [Compound I-212]
pFGFR4 in Huh7 cells
  EC50: < 100 nM

## C=CC(=O)NC1CN(C)CC1Nc1ncc2c(n1)N(C)C(=O)N(c1c(Cl)c(OC)cc(OC)c1Cl)C2 (racemic) [Compound I-138]
pFGFR4 in Huh7 cells
  EC50: 101 to 500 nM

## C=CC(=O)Nc1ccccc1Nc1ncc2c(n1)N(C)C(=O)N(c1c(Cl)c(OC)cc(OC)c1Cl)C2 [Compound I-2]
FGFR4-WT; method b: [FGFR4-WT]=2.5 nM (SignalChem), [ATP]=250 uM, [Y10-Sox]=10 uM
  IC50: < 100 nM

## C=CC(=O)Nc1cc(N2CCCCC2)ccc1Nc1ncc2c(n1)N(C)C(=O)N(c1cc(OC)cc(OC)c1)C2 [Compound I-31]
FGFR4-WT; [1]
  IC50: < 100 nM

## C=CC(=O)Nc1cc(N2CCOCC2)ccc1Nc1ncc2c(n1)N(C)C(=O)N(c1cc(OC)cc(OC)c1)C2 [Compound I-17]
FGFR4-WT; [1]
  IC50: < 100 nM

## C=C(C)C(=O)Nc1ccccc1Nc1ncc2c(n1)N(C)C(=O)N(c1c(Cl)c(OC)cc(OC)c1Cl)C2 [Compound I-142]
FGFR4-WT; [1]
  IC50: < 100 nM

## C=CC(=O)Nc1ccccc1Nc1ncc2c(n1)N(C)C(=O)N(c1cc(OC)cc(OC)c1Cl)C2 [Compound I-75]
FGFR4-WT; [1]
  IC50: < 100 nM

## C=CC(=O)Nc1ccccc1Nc1ncc2c(n1)N(C)C(=O)N(C1CC1)C2 [Compound I-51]
FGFR4-WT; [1]
  IC50: > 1000 nM

## C=CC(=O)Nc1ccc(C)cc1Nc1ncc2c(n1)N(C)C(=O)N(c1cc(OC)cc(OC)c1)C2 [Compound I-49]
FGFR4-WT; [1]
  IC50: < 100 nM
